Data taken from patent US10179790B2 (THOMAS HELLEDAYS STIFTELSE FOR MEDICINSK FORSKNING, priority 2014, dated 2019).

What follows are compounds tested against MTH1 (Homo sapiens, UniProt P36639) (assay: MTH1 enzymatic assay and IC50 value determination (malachite green, 96- and 384-well format)). Details: hydrolysis of dGTP (100 μM), MTH1 6 nM, pyrophosphatase-coupled malachite green, 15 minutes at 22° C.
Type: biochemical
Method: MTH1 Enzymatic Assay and IC50 Value Determination
MTH1 catalyzes the hydrolysis of dGTP to dGMP and PPi. By coupling the reaction to pyrophosphatase added in excess PPi is converted to Pi that can be detected by using the malachite green assay reagent. Two different formats were used for IC50 determinations in the enzymatic assay, 96- and 384-well format. 96-Well Method:
Briefly, the compound to be analyzed is diluted in DMSO in a 1:3 dilution series generating 12 different compound concentrations giving a final DMSO concentration of 1% in the assay well. MTH1 diluted in assay buffer (100 mM Tris-acetate, 40 mM NaCl, 10 mM magnesium acetate, 1 mM DTT and 0.005% Tween 20) fortified with E. coli pyrophosphatase (0.2 U/ml) is added to a final concentration of 6 nM. dGTP diluted in assay buffer is added to a final concentration of 100 μM. The reaction mixture is incubated for 15 minutes at 22° C. To 100 μl reaction mixture, 25 μl Malachite green assay regent (0.095% Malachite green in 17% H2SO4, 1.5% Ammonium molybdate, 0.17% Tween 20) is added, followed by incubation with shaking for 15 minutes at 22° C. The absorbance of the assay plate is read at 630 nm using a Hidex Sense Multilabel plate reader. The IC50 value is determined by fitting a dose response curve to the data points using nonlinear regression analysis and the equation Y=Bottom+(Top−Bottom)/(1+10^((Log IC50−X)*HillSlope)), where Y is the read absorbance at 630 nm and X is log [compound].
The compounds to be tested are nano-dispensed, in 11 concentrations, directly in assay plates, with a final DMSO concentration <1%. The protocol and the reaction mixture are the same as for the 96-well assay, with a total reaction volume of 50 μl/well to which 10 μl of Malachite green reagent is added. All additions to the assay plates are made with multidrop.

IC50, < 200 nM:
Cc1ccc(-c2cc(NCCc3ccc(S(N)(=O)=O)cc3)nc(N)n2)o1 [Example 4, 4-(2-{[2-amino-6-(5-methylfuran-2-yl)pyrimidin-4-yl]amino}ethyl)benzene-1-sulfonamide]
Cc1cccc(-c2cc(NCCNc3ccc(C(N)=O)cn3)nc(N)n2)c1C [Example 5, 6-[(2-{[2-amino-6-(2,3-dimethylphenyl)pyrimidin-4-yl]amino}ethyl)amino]pyridine-3-carboxamide]
CSc1ccc(NC(=O)NCCCCNc2cc(-c3cccc(Cl)c3Cl)nc(N)n2)cc1 [Example 6, 3-(4-{[2-amino-6-(2,3-dichlorophenyl)pyrimidin-4-yl]amino}butyl)-1-[4-(methylsulfanyl)phenyl]urea]
C[S+]([O-])c1ccc(NC(=O)NCCCCNc2cc(-c3cccc(Cl)c3Cl)nc(N)n2)cc1 (stereo not drawn) [Example 7, 3-(4-{[2-amino-6-(2,3-dichlorophenyl)pyrimidin-4-yl]amino}butyl)-1-(4-methanesulfinylphenyl)urea]
Cc1cc(-c2cc(NCCNc3ccc([N+](=O)[O-])cn3)nc(N)n2)c(C)cc1F [Example 8, 6-(4-fluoro-2,5-dimethylphenyl)-4-N-{2-[(5-nitropyridin-2-yl)amino]ethyl}pyrimidine-2,4-diamine]
Cc1c(Cl)cccc1-c1cc(NCCc2ccc(C(=O)O)cc2)nc(N)n1 [Example 9, 4-(2-{[2-amino-6-(3-chloro-2-methylphenyl)pyrimidin-4-yl]amino}ethyl)benzoic acid]
CC(=O)c1sccc1-c1cc(NCCc2ccc(S(N)(=O)=O)cc2)nc(N)n1 [Example 10, 4-(2-{[6-(2-acetylthiophen-3-yl)-2-aminopyrimidin-4-yl]amino}ethyl)benzene-1-sulfonamide]
CC(=O)Nc1ccc(NCCNc2cc(-c3cc(C)c(F)cc3C)nc(N)n2)nc1 [Example 11, N-{6-[(2-{[2-amino-6-(4-fluoro-2,5-dimethylphenyl)pyrimidin-4-yl]amino}ethyl)amino]pyridin-3-yl}acetamide]
Cc1cc(-c2cc(NCCNc3ccc(NS(C)(=O)=O)cn3)nc(N)n2)c(C)cc1F [Example 12, N-{6-[(2-{[2-amino-6-(4-fluoro-2,5-dimethylphenyl)pyrimidin-4-yl]amino}ethyl)amino]pyridin-3-yl}methanesulfonamide]
Cc1cccc(-c2cc(NCCNc3cncc(S(N)(=O)=O)c3)nc(N)n2)c1C [Example 14, 5-[(2-{[2-amino-6-(2,3-dimethylphenyl)pyrimidin-4-yl]amino}ethyl)amino]pyridine-3-sulfonamide]
Cc1c(Cl)cccc1-c1cc(N[C@H]2C[C@@H]2c2ccc(S(N)(=O)=O)cc2)nc(N)n1 [Example 15, 4-[(1R,2S)-2-{[2-amino-6-(3-chloro-2-methylphenyl)pyrimidin-4-yl]amino}cyclopropyl]benzene-1-sulfonamide]
CC(C)(C)OC(=O)NCc1ccc(-c2cc(NCCc3ccc(S(C)(=O)=O)cc3)nc(N)n2)s1 [Example 18, tert-butyl N-{[5-(2-amino-6-{[2-(4-methanesulfonylphenyl)ethyl]amino}pyrimidin-4-yl)thiophen-2-yl]methyl}carbamate]
Nc1nc(NCCc2ccc(S(N)(=O)=O)cc2)cc(-c2cccc(O)c2)n1 [Example 27, 4-(2-{[2-amino-6-(3-hydroxyphenyl)pyrimidin-4-yl]amino}ethyl)benzene-1-sulfonamide]
Nc1nc(NCCc2ccc(S(N)(=O)=O)cc2)cc(-c2cccc(OS(=O)(=O)C(F)(F)F)c2)n1 [Example 33, 3-(2-amino-6-{[2-(4-sulfamoylphenyl)ethyl]amino}pyrimidin-4-yl)phenyl trifluoromethanesulfonate]
Cc1cccc(-c2cc(NCCc3ccc(C(=O)O)cc3)nc(N)n2)c1C [Example 34, 4-(2-{[2-amino-6-(2,3-dimethylphenyl)pyrimidin-4-yl]amino}ethyl)benzoic acid]
Nc1nc(NCCNc2ccc3c(c2)NC(=O)CO3)cc(-c2cccc(Cl)c2)n1 [Example 37, 6-[(2-{[2-amino-6-(3-chlorophenyl)pyrimidin-4-yl]amino}ethyl)amino]-3,4-dihydro-2H-1,4-benzoxazin-3-one]
Cc1cccc(-c2cc(NCCNc3nc(N)nc4[nH]cnc34)nc(N)n2)c1C [Example 45, 4-N-{2-[(2-amino-9H-purin-6-yl)amino]ethyl}-6-(2,3-dimethylphenyl)pyrimidine-2,4-diamine]
COC(=O)c1cc(C)nc(NCCNc2cc(-c3cccc(C)c3C)nc(N)n2)n1 [Example 50, methyl 2-[(2-{[2-amino-6-(2,3-dimethylphenyl)pyrimidin-4-yl]amino}ethyl)amino]-6-methylpyrimidine-4-carboxylate]
Cc1cccc(-c2cc(NCCNc3ncnc4[nH]cnc34)nc(N)n2)c1C [Example 51, 6-(2,3-dimethylphenyl)-4-N-{2-[(9H-purin-6-yl)amino]ethyl}pyrimidine-2,4-diamine]
Cc1cc(Cl)c(Cl)cc1-c1cc(NCCc2ccc(S(N)(=O)=O)cc2)nc(N)n1 [Example 67, 4-(2-{[2-amino-6-(4,5-dichloro-2-methylphenyl)pyrimidin-4-yl]amino}ethyl)benzene-1-sulfonamide]
COc1cc(C)c(-c2cc(NCCc3ccc(S(N)(=O)=O)cc3)nc(N)n2)cc1Cl [Example 68, 4-(2-{[2-amino-6-(5-chloro-4-methoxy-2-methylphenyl)pyrimidin-4-yl]amino}ethyl)benzene-1-sulfonamide]
Nc1nc(NCCc2ccc(S(N)(=O)=O)cc2)cc(-c2cccc3[nH]ccc23)n1 [Example 69, 4-(2-{[2-amino-6-(1H-indol-4-yl)pyrimidin-4-yl]amino}ethyl)benzene-1-sulfonamide]
Cc1ccc(F)cc1-c1cc(NCCc2ccc(S(N)(=O)=O)cc2)nc(N)n1 [Example 71, 4-(2-{[2-amino-6-(5-fluoro-2-methylphenyl)pyrimidin-4-yl]amino}ethyl)benzene-1-sulfonamide]
NC(=O)c1ccc(CCNc2cc(-c3cccc(Cl)c3F)nc(N)n2)cc1 [Example 80, 4-(2-{[2-amino-6-(3-chloro-2-fluorophenyl)pyrimidin-4-yl]amino}ethyl)benzamide]
Cc1c(Cl)cccc1-c1cc(NCCc2cccc(C(N)=O)c2)nc(N)n1 [Example 88, 3-[2-[[2-amino-6-(3-chloro-2-methyl-phenyl)pyrimidin-4-yl]amino]ethyl]benzamide]
CN1C(=O)COc2ccc(NCCNc3cc(-c4cccc(Cl)c4Cl)nc(N)n3)cc21 [Example 94, 6-[2-[[2-amino-6-(2,3-dichlorophenyl)pyrimidin-4-yl]amino]ethylamino]-4-methyl-1,4-benzoxazin-3-one]
Nc1nc(NCCc2ccc(S(N)(=O)=O)cc2)cc(-c2ccc(Cl)c(Cl)c2Cl)n1 [Example 98, 4-[2-[[2-amino-6-(2,3,4-trichlorophenyl)pyrimidin-4-yl]amino]ethyl]benzenesulfonamide]
COc1c(Cl)ccc(-c2cc(NCCc3ccc(S(N)(=O)=O)cc3)nc(N)n2)c1Cl [Example 99, 4-[2-[[2-amino-6-(2,4-dichloro-3-methoxy-phenyl)pyrimidin-4-yl]amino]ethyl]benzenesulfonamide]
Cc1c(Cl)cccc1-c1cc(NCCn2c([N+](=O)[O-])cnc2C)nc(N)n1 [Example 100, 6-(3-chloro-2-methyl-phenyl)-N4-[2-(2-methyl-5-nitro-imidazol-1-yl)ethyl]pyrimidine-2,4-diamine]
Nc1nc(NCCc2ccc(S(N)(=O)=O)cc2)cc(-c2csc3ccccc23)n1 [Example 102, 4-[2-[[2-amino-6-(benzothiophen-3-yl)pyrimidin-4-yl]amino]ethyl]benzenesulfonamide]
Cc1c(Cl)cccc1-c1cc(NCCc2ccc(C(=N)N)cc2)nc(N)n1 [Example 125, 4-[2-[[2-amino-6-(3-chloro-2-methyl-phenyl)pyrimidin-4-yl]amino]ethyl]benzamidine]
CC(C)(C)OC(=O)N1CC=C(c2cc(NCCc3ccc(S(C)(=O)=O)cc3)nc(N)n2)CC1 [Example 129, tert-butyl 4-(2-amino-6-{[2-(4-methanesulfonylphenyl)ethyl]amino}pyrimidin-4-yl)-1,2,3,6-tetrahydropyridine-1-carboxylate]
Cc1ccc(S(=O)(=O)N2CC=C(c3cc(NCCc4ccc(S(C)(=O)=O)cc4)nc(N)n3)CC2)cc1 [Example 130, 4-N-[2-(4-methanesulfonylphenyl)ethyl]-6-[1-(4-methylbenzenesulfonyl)-1,2,3,6-tetrahydropyridin-4-yl]pyrimidine-2,4-diamine]
